{"source": "paper PMC8569227", "about": "(Frontiers in Plant Science, 2021)", "key": {"[1]": {"target": "T1, recombinant Trypanosoma brucei AOX (rTAO) (Trypanosoma brucei brucei, UniProt Q26710)", "T1 sequence (Q26710 25-329)": "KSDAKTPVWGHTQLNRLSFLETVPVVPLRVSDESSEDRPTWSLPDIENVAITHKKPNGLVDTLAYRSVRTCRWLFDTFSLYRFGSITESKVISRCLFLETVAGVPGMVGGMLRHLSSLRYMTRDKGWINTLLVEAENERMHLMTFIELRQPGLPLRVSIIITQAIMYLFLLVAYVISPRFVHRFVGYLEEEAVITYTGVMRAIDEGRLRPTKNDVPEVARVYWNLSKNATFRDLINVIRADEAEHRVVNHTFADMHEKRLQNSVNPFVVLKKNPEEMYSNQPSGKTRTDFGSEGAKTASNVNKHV", "assay": "biochemical", "details": "rTAO IC50, membrane-bound protein, 300 μM NADH, MOPS buffer pH 7.5"}, "[2]": {"target": "T2, Arabidopsis thaliana AOX1A (rAtAOX1A) (Arabidopsis thaliana, UniProt Q39219)", "T2 sequence (Q39219 63-354)": "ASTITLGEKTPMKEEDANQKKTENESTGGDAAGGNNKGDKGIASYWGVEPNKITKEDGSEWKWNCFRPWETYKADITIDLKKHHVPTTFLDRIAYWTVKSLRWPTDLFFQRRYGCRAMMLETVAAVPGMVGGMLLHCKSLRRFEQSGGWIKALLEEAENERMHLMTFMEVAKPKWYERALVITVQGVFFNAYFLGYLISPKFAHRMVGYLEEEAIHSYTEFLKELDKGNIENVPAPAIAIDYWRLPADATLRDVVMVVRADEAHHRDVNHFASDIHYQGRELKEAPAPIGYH", "assay": "biochemical", "details": "rAtAOX1A IC50, membrane-bound protein, 300 μM NADH, MOPS buffer pH 7.5"}, "[3]": {"target": "T2, Arabidopsis thaliana AOX1A (rAtAOX1A)", "assay_type": "biochemical", "details": "for Fold change of oxygen consumption rate of rAtAOX1A vs control / Effect on oxygen consumption rate of rAtAOX1A (in words): 10 mM effector, membrane-bound protein, 1 mM NADH; for Fold change of oxygen consumption rate of rAtAOX1A vs control: 1 mM KCN (Figure 5C); for Effect on oxygen consumption rate of rAtAOX1A (in words): 1 mM KCN (Figure 5)"}, "[4]": {"target": "T1, recombinant Trypanosoma brucei AOX (rTAO)", "assay_type": "biochemical"}, "[5]": {"target": "T2, Arabidopsis thaliana AOX1A (rAtAOX1A)", "assay_type": "biochemical", "description": "(§1) Kinetic analysis of the purified rTAO and rAtAOX1A was performed spectrophotometrically using a Cary 4000 UV spectrophotometer (Varian, UK Ltd, Surrey UK) with the packaged software. All assays were performed in 65 mM MOPS buffer pH 7.5 with different concentrations of quinol-1 as the substrate, measuring the conversion of Q1H2 (ubiquinol-1) to Q1 (ubiquinone-1) at 278 nm (ε = 15,000 M^−1 cm^−1). Q1 was reduced to Q1H2 prior to experimentation via sonication with zinc powder under an inert atmosphere for ~10 min, with the resultant zinc then being removed via centrifugation at 2,000 g."}, "[6]": {"target": "T1, recombinant Trypanosoma brucei AOX (rTAO)", "assay": "Quinol kinetics of purified rTAO, Q1H2 oxidation at 278 nm", "assay_type": "biochemical", "details": "MOPS pH 7.5", "description": "as §1"}}, "note": "Where “and” joins values, the source holds several entries; their conditions need not be identical. Equal entries are not always repeated. Where two headings read alike, the source gives them in different places.", "data": [{"smiles": "CC(/C=C/[C@@]1(C)[C@H](C)CCC(=O)[C@@H]1C)=C\\Cc1c(O)c(Cl)c(C)c(C=O)c1O", "note": "[AC, ascochlorin]", "values": [{"measurement": "IC50", "setting": "[1]", "result": "3.8 nM and 3.7 nM"}, {"measurement": "IC50", "setting": "[2]", "result": 14.7, "unit": "nM"}]}, {"smiles": "Nc1ncnc2c1ncn2[C@@H]1O[C@H](COP(=O)(O)OP(=O)(O)O)[C@@H](O)[C@H]1O", "note": "[ADP, adenosine diphosphate]", "values": [{"measurement": "Fold change of oxygen consumption rate of rAtAOX1A vs control", "setting": "[3]", "result": 1.4, "unit": "fold"}]}, {"smiles": "C/C(=C\\Cc1c(O)c(Cl)c(C)c(C=O)c1O)CC/C=C(\\C)[C@@H]1CC(=O)C(C)(C)O1", "note": "[AF, ascofuranone]", "values": [{"measurement": "IC50", "setting": "[2]", "result": 6.21, "unit": "nM"}]}, {"smiles": "CC(C)=CCC/C(C)=C/Cc1c(O)c(Cl)c(C)c(C=O)c1O", "note": "[CB, colletochlorin B]", "values": [{"measurement": "IC50", "setting": "[2]", "result": "2.82 nM and 2.8 nM"}]}, {"smiles": "CC(C)=CCc1c(O)c(Cl)c(C)c(C=O)c1O", "note": "[CD, colletochlorin D]", "values": [{"measurement": "IC50", "setting": "[1]", "result": "3.73 nM and 3.8 nM"}, {"measurement": "IC50", "setting": "[2]", "result": 5.76, "unit": "nM"}]}, {"smiles": "Nc1nc2c(ncn2[C@@H]2O[C@H](COP(=O)(O)OP(=O)(O)O)[C@@H](O)[C@H]2O)c(=O)[nH]1", "note": "[GDP]", "values": [{"measurement": "Fold change of oxygen consumption rate of rAtAOX1A vs control", "setting": "[3]", "result": 1.4, "unit": "fold"}]}, {"smiles": "O=O", "note": "[O2, oxygen]", "values": [{"measurement": "Km", "setting": "[4]; membrane samples, 25°C, 1.25 mM NADH, without pyruvate, read-out: Km for O2, rTAO", "result": 1.15, "unit": "µM"}, {"measurement": "Km", "setting": "[3]; membrane samples, 25°C, 1.25 mM NADH, without pyruvate, read-out: Km for O2, rAtAOX1A", "result": 2.41, "unit": "µM"}]}, {"smiles": "CCCCCCCCOC(=O)c1cc(O)c(O)c(O)c1", "note": "[OG, octylgallate]", "values": [{"measurement": "IC50", "setting": "[1]", "result": 417, "unit": "nM"}, {"measurement": "IC50", "setting": "[2]", "result": 1580, "unit": "nM"}]}, {"smiles": "COc1c(O)c(C)c(CC=C(C)C)c(O)c1OC", "note": "[Q1H2, ubiquinol-1]", "values": [{"measurement": "Km", "setting": "[5]; purified rAtAOX1A, without pyruvate, MOPS pH 7.5, read-out: Km for Q1H2, rAtAOX1A", "result": 26, "unit": "µM"}, {"measurement": "Km", "setting": "[6]", "result": 451, "unit": "µM"}]}, {"smiles": "O=C(NO)c1ccccc1O", "note": "[SHAM, salicylic hydroxamic acid]", "values": [{"measurement": "IC50", "setting": "[2]", "result": 33000, "unit": "nM"}]}, {"smiles": "CC(=O)O", "note": "[acetic acid]", "values": [{"measurement": "Effect on oxygen consumption rate of rAtAOX1A (in words)", "setting": "[3]", "result": "no stimulation"}]}, {"smiles": "O=CC(=O)O", "note": "[glyoxylate]", "values": [{"measurement": "Fold change of oxygen consumption rate of rAtAOX1A vs control", "setting": "[3]", "result": "more than 7 fold"}]}, {"smiles": "O=C(O)CC(=O)C(=O)O", "note": "[oxaloacetate]", "values": [{"measurement": "Effect on oxygen consumption rate of rAtAOX1A (in words)", "setting": "[3]", "result": "dramatically promoted"}]}, {"smiles": "CCC(=O)O", "note": "[propanoic acid]", "values": [{"measurement": "Effect on oxygen consumption rate of rAtAOX1A (in words)", "setting": "[3]", "result": "no stimulation"}]}, {"smiles": "CC(=O)C(=O)O", "note": "[pyruvate]", "values": [{"measurement": "Change of Km for Q1H2 of rAtAOX1A", "setting": "[5]; 10 mM pyruvate during purification and in the assay, purified protein", "result": "remained unchanged"}, {"measurement": "Change of Vmax of rAtAOX1A", "setting": "[5]; 10 mM pyruvate during purification and in the assay, purified protein, Q1H2 substrate", "result": "increased approximately five times"}, {"measurement": "Activation of oxygen consumption rate of rTAO (in words)", "setting": "[4]; 10 mM effector, membrane-bound protein", "result": "but not that of rTAO"}, {"measurement": "Fold change of oxygen consumption rate of rAtAOX1A vs control", "setting": "[3]", "result": "more than 7 fold"}, {"measurement": "Respiratory rate of rAtAOX1A with vs without pyruvate", "setting": "[3]; 10 mM pyruvate, membrane samples, 1.25 mM NADH (Figure 4)", "result": "~ 6 fold"}, {"measurement": "Change of Km for O2 of rAtAOX1A", "setting": "[3]; 10 mM pyruvate, membrane-bound protein (Figure 4)", "result": "increased Km value for O2"}]}, {"smiles": "O=C(O)CCC(=O)O", "note": "[succinate]", "values": [{"measurement": "Effect on oxygen consumption rate of rAtAOX1A (in words)", "setting": "[3]", "result": "dramatically promoted"}]}]}
